Measurements published in patent US20160256449A1, “H3 RECEPTOR ANTAGONIST FOR USE IN THE TREATMENT OF ALZHEIMER'S DISEASE” (SANOFI, priority 2013, published 2016).

How the values were obtained:
CD1 male mice = assay: object recognition test in normal mice; assay type: in vivo
Description: FIG. 1 illustrates the results of the effect of a co-treatment with 2-(cyclohexyl methyl)-N-{2-[(2S)-1-methyl pyrrolidin-2-yl]ethyl}-1,2,3,4-tetrahydroisoquinoline-7-sulfonamide and donepezil on recognition memory in normal mice at various delays using the object recognition task.
The results of this study are depicted in FIG. 1.

[1] = test system: patients with mild to moderate Alzheimer's disease; assay: clinical study, AES-I apathy score; assay type: in vivo, human; conditions: 5 mg/day with donepezil
Description: “AES-I” as used herein, refers to the Apathy Evaluation Scale for Informant which assess global measure of apathy. Scores range from 18 (best possible) to 72 (worst possible).
(§1) A randomized, double-blind, parallel-group, placebo-controlled clinical trial was performed to study the effect on cognitive performance, safety, and tolerability of 2-(cyclohexylmethyl)-N-{2-[(2S)-1-methylpyrrolidin-2-yl]ethyl}-1,2,3,4-tetrahydroisoquinoline-7-sulfonamide difumarate monohydrate as adjunct treatment to donepezil.
(§2) More specifically, patients with mild to moderate Alzheimer's disease on stable donepezil therapy were randomized to receive doses of 0.5 mg, 2 mg, or 5 mg/day of 2-(cyclohexylmethyl)-N-{2-[(2S)-1-methylpyrrolidin-2-yl]ethyl}-1,2,3,4-tetrahydroisoquinoline-7-sulfonamide difumarate monohydrate or placebo for 24 weeks, with a 10 week follow-up period.
(§3) Patients were randomized to receive 0.5 mg, 2 mg, or 5 mg of 2-(cyclohexylmethyl)-N-{2-[(2S)-1-methylpyrrolidin-2-yl]ethyl}-1,2,3,4-tetrahydroisoquinoline-7-sulfonamide difumarate monohydrate (measured in base form), or matching placebo once a day, with donepezil (5 mg or 10 mg in the form the patient took prior to enrollment), for 24 weeks, with or without food.
Change from baseline to Week 12 and 24 in the Apathy Evaluation Scale for Informant (AES-I) score; and […]

[2] = test system: patients with mild to moderate Alzheimer's disease; assay: clinical study, CDR-S computerized assessment; assay type: in vivo, human
Description: “CDR-S” as used herein, refers to the Cognitive Drug Research computerized assessment system which tests various aspects of human cognitive function, memory, and attention.
as §1, §2, §3
Change from baseline to Week 24 in the five factors from the Cognitive Drug Research computerized assessment system (CDR-S): power of attention, continuity of attention, quality of working memory, cognitive reaction time, and speed of memory;
Change from baseline to Week 8 and 24 in the Cognitive Drug Research computerized assessment system (CDR-S) episodic memory;

[3] = test system: patients with mild to moderate Alzheimer's disease; assay: clinical study, actigraphy (Actiwatch); assay type: in vivo, human; conditions: for Interdaily variability, Ch from bl FUP / Intradaily stability, Ch from bl FUP / Mean awakening duration, Ch from bl FUP / Number of awakenings, Ch from bl FUP / Relative amplitude, Ch from bl FUP / Sleep efficiency, Ch from bl FUP / Sleep fragmentation, Ch from bl FUP / Total sleep time, Ch from bl FUP / Wake after sleep onset, Ch from bl FUP: follow-up
Description: Actigraphy as used herein refers to an assessment of activity measured by an Actiwatch®, which was worn day and night by the patient during 4 periods of 15 days: before randomization, immediately after randomization, around week 12 and after treatment discontinuation around week 34 during the clinical study described in Example 2. The watch measures movements translating into assessment of sleep quality (number and duration of awakenings, wake after sleep onset or WASO, fragmentation index, sleep efficiency, total sleep period, total sleep time) and circadian rhythms ([…], relative amplitude).
as §1, §2, §3

Interdaily variability, Ch from bl W2 ([3]; 0.5 mg/day with donepezil): 0.01 | Interdaily variability, Ch from bl W12 ([3]; 0.5 mg/day with donepezil): 0.04 | Intradaily stability, Ch from bl W2 ([3]; 0.5 mg/day with donepezil): −0.03 | Intradaily stability, Ch from bl W12 ([3]; 0.5 mg/day with donepezil): −0.06 | Mean awakening duration, Ch from bl W2 ([3]; 0.5 mg/day with donepezil): 0.08 min | Mean awakening duration, Ch from bl W12 ([3]; 0.5 mg/day with donepezil): 0.22 min | Mean awakening duration, significance (unlabelled line under Ch from bl W12) ([3]; 0.5 mg/day with donepezil): 0.0109 | Number of awakenings, Ch from bl W2 ([3]; 0.5 mg/day with donepezil): −0.37 | Number of awakenings, Ch from bl W12 ([3]; 0.5 mg/day with donepezil): −0.55 | Relative amplitude, Ch from bl W2 ([3]; 0.5 mg/day with donepezil): 0.00 | Relative amplitude, Ch from bl W12 ([3]; 0.5 mg/day with donepezil): 0.02 | Sleep efficiency, Ch from bl W2 ([3]; 0.5 mg/day with donepezil): −0.05% | Sleep efficiency, Ch from bl W12 ([3]; 0.5 mg/day with donepezil): −0.53% | Sleep efficiency, significance (unlabelled line under Ch from bl W12) ([3]; 0.5 mg/day with donepezil): 0.0121 | Sleep fragmentation, Ch from bl W2 ([3]; 0.5 mg/day with donepezil): 0.91 | Sleep fragmentation, Ch from bl W12 ([3]; 0.5 mg/day with donepezil): 0.29 | Total sleep time, Ch from bl W2 ([3]; 0.5 mg/day with donepezil): −0.03 h.min | Total sleep time, Ch from bl W12 ([3]; 0.5 mg/day with donepezil): 0.05 h.min | Wake after sleep onset, Ch from bl W2 ([3]; 0.5 mg/day with donepezil): 0.02 h.min | Wake after sleep onset, Ch from bl W12 ([3]; 0.5 mg/day with donepezil): 0.03 h.min | Interdaily variability, Ch from bl FUP ([3]; 0.5 mg/day with donepezil): −0.02 | Intradaily stability, Ch from bl FUP ([3]; 0.5 mg/day with donepezil): 0.06 | Mean awakening duration, Ch from bl FUP ([3]; 0.5 mg/day with donepezil): 0.01 min | Number of awakenings, Ch from bl FUP ([3]; 0.5 mg/day with donepezil): 1.34 | Relative amplitude, Ch from bl FUP ([3]; 0.5 mg/day with donepezil): −0.01 | Sleep efficiency, Ch from bl FUP ([3]; 0.5 mg/day with donepezil): −0.69% | Sleep fragmentation, Ch from bl FUP ([3]; 0.5 mg/day with donepezil): 0.98 | Total sleep time, Ch from bl FUP ([3]; 0.5 mg/day with donepezil): 0.24 h.min | Wake after sleep onset, Ch from bl FUP ([3]; 0.5 mg/day with donepezil): 0.04 h.min | Interdaily variability, Ch from bl W2 ([3]; 2 mg/day with donepezil): −0.01 | Interdaily variability, Ch from bl W12 ([3]; 2 mg/day with donepezil): −0.03 | Intradaily stability, Ch from bl W2 ([3]; 2 mg/day with donepezil): 0.02 | Intradaily stability, Ch from bl W12 ([3]; 2 mg/day with donepezil): 0.01 | Mean awakening duration, Ch from bl W2 ([3]; 2 mg/day with donepezil): 0.14 min | Mean awakening duration, Ch from bl W12 ([3]; 2 mg/day with donepezil): 0.40 min | Mean awakening duration, significance (unlabelled line under Ch from bl W12) ([3]; 2 mg/day with donepezil): <.0001 | Number of awakenings, Ch from bl W2 ([3]; 2 mg/day with donepezil): 0.51 | Number of awakenings, Ch from bl W12 ([3]; 2 mg/day with donepezil): 1.26 | Relative amplitude, Ch from bl W2 ([3]; 2 mg/day with donepezil): −0.03 | Relative amplitude, Ch from bl W12 ([3]; 2 mg/day with donepezil): −0.06 | Relative amplitude, significance (unlabelled line under Ch from bl W12) ([3]; 2 mg/day with donepezil): <.0001 | Sleep efficiency, Ch from bl W2 ([3]; 2 mg/day with donepezil): −1.65% | Sleep efficiency, Ch from bl W12 ([3]; 2 mg/day with donepezil): −2.58% | Sleep efficiency, significance (unlabelled line under Ch from bl W12) ([3]; 2 mg/day with donepezil): <.0001 | Sleep fragmentation, Ch from bl W2 ([3]; 2 mg/day with donepezil): 2.82 | Sleep fragmentation, Ch from bl W12 ([3]; 2 mg/day with donepezil): 6.31 | Sleep fragmentation, significance (unlabelled line under Ch from bl W12) ([3]; 2 mg/day with donepezil): <.0001 | Total sleep time, Ch from bl W2 ([3]; 2 mg/day with donepezil): −0.1 h.min | Total sleep time, Ch from bl W12 ([3]; 2 mg/day with donepezil): −0.2 h.min | Wake after sleep onset, Ch from bl W2 ([3]; 2 mg/day with donepezil): 0.07 h.min | Wake after sleep onset, Ch from bl W12 ([3]; 2 mg/day with donepezil): 0.18 h.min | Wake after sleep onset, significance (unlabelled line under Ch from bl W12) ([3]; 2 mg/day with donepezil): <.0001 | Interdaily variability, Ch from bl FUP ([3]; 2 mg/day with donepezil): −0.01 | Intradaily stability, Ch from bl FUP ([3]; 2 mg/day with donepezil): 0.04 | Mean awakening duration, Ch from bl FUP ([3]; 2 mg/day with donepezil): 0.34 min | Number of awakenings, Ch from bl FUP ([3]; 2 mg/day with donepezil): 1.27 | Relative amplitude, Ch from bl FUP ([3]; 2 mg/day with donepezil): −0.07 | Sleep efficiency, Ch from bl FUP ([3]; 2 mg/day with donepezil): −3.97% | Sleep fragmentation, Ch from bl FUP ([3]; 2 mg/day with donepezil): 3.93 | Total sleep time, Ch from bl FUP ([3]; 2 mg/day with donepezil): −0.25 h.min | Wake after sleep onset, Ch from bl FUP ([3]; 2 mg/day with donepezil): 0.13 h.min | Total sleep time, significance (unlabelled line under Ch from bl W12) ([3]; 2 mg/day with donepezil, NS = non-significant): 0.06) | total sleep time ([3]; 5 mg): No modification | total sleep time and WASO after treatment discontinuation (FUP) ([3]; 5 mg group): improved | Interdaily variability, Ch from bl W2 ([3]; 5 mg/day with donepezil): 0.00 | Interdaily variability, Ch from bl W12 ([3]; 5 mg/day with donepezil): −0.04 | Intradaily stability, Ch from bl W2 ([3]; 5 mg/day with donepezil): −0.05 | Intradaily stability, Ch from bl W12 ([3]; 5 mg/day with donepezil): 0.02 | Mean awakening duration, Ch from bl W2 ([3]; 5 mg/day with donepezil): 0.30 min | Mean awakening duration, Ch from bl W12 ([3]; 5 mg/day with donepezil): 0.38 min | Mean awakening duration, significance (unlabelled line under Ch from bl W12) ([3]; 5 mg/day with donepezil): <.0001 | Number of awakenings, Ch from bl W2 ([3]; 5 mg/day with donepezil): −0.52 | Number of awakenings, Ch from bl W12 ([3]; 5 mg/day with donepezil): 0.84 | Relative amplitude, Ch from bl W2 ([3]; 5 mg/day with donepezil): −0.02 | Relative amplitude, Ch from bl W12 ([3]; 5 mg/day with donepezil): −0.08 | Relative amplitude, significance (unlabelled line under Ch from bl W12) ([3]; 5 mg/day with donepezil): 0.0015 | Sleep efficiency, Ch from bl W2 ([3]; 5 mg/day with donepezil): −1.82% | Sleep efficiency, Ch from bl W12 ([3]; 5 mg/day with donepezil): −2.26% | Sleep efficiency, significance (unlabelled line under Ch from bl W12) ([3]; 5 mg/day with donepezil): <.0001 | Sleep fragmentation, Ch from bl W2 ([3]; 5 mg/day with donepezil): 3.57 | Sleep fragmentation, Ch from bl W12 ([3]; 5 mg/day with donepezil): 5.83 | Sleep fragmentation, significance (unlabelled line under Ch from bl W12) ([3]; 5 mg/day with donepezil): 0.0005 | Total sleep time, Ch from bl W2 ([3]; 5 mg/day with donepezil): −0.11 h.min | Total sleep time, Ch from bl W12 ([3]; 5 mg/day with donepezil): −0.05 h.min | Wake after sleep onset, Ch from bl W2 ([3]; 5 mg/day with donepezil): 0.08 h.min | Wake after sleep onset, Ch from bl W12 ([3]; 5 mg/day with donepezil): 0.17 h.min | Wake after sleep onset, significance (unlabelled line under Ch from bl W12) ([3]; 5 mg/day with donepezil): <.0001 | Interdaily variability, Ch from bl FUP ([3]; 5 mg/day with donepezil): 0.00 | Intradaily stability, Ch from bl FUP ([3]; 5 mg/day with donepezil): −0.03 | Mean awakening duration, Ch from bl FUP ([3]; 5 mg/day with donepezil): 0.12 min | Number of awakenings, Ch from bl FUP ([3]; 5 mg/day with donepezil): 1.20 | Relative amplitude, Ch from bl FUP ([3]; 5 mg/day with donepezil): −0.02 | Sleep efficiency, Ch from bl FUP ([3]; 5 mg/day with donepezil): −0.89% | Sleep fragmentation, Ch from bl FUP ([3]; 5 mg/day with donepezil): 3.08 | Total sleep time, Ch from bl FUP ([3]; 5 mg/day with donepezil): 0.1 h.min | Wake after sleep onset, Ch from bl FUP ([3]; 5 mg/day with donepezil): 0.09 h.min
SMILES: CN1CCC[C@H]1CCNS(=O)(=O)c1ccc2c(c1)CN(CC1CCCCC1)CC2 [API, 2-(cyclohexylmethyl)-N-{2-[(2S)-1-methylpyrrolidin-2-yl]ethyl}-1,2,3,4-tetrahydroisoquinoline-7-sulfonamide difumarate monohydrate]
procognitive effect of co-administration in object recognition test (CD1 male mice; 3 mg/kg co-administered with 3 mg/kg donepezil hydrochloride, 48 hours post administration): significant procognitive effect | memory in object recognition test (CD1 male mice; 3 mg/kg oral, individually, 24 hours after administration): enhanced the memory | procognitive effect in object recognition test (CD1 male mice; 3 mg/kg oral, individually, after 48 hours): lack of procognitive effect | AES-I change from baseline vs placebo ([1]; after 12 weeks, mITT): significant difference | AES-I difference vs placebo ([1]; at 24 weeks and follow-up): no longer significant | episodic memory difference vs placebo ([2]; 5 mg/day with donepezil, at 24 weeks): no longer significant | power of attention vs placebo, tendency ([2]; 0.5 and 5 mg group at week 24): Tendencies for improvement versus placebo | power of attention change from baseline vs placebo ([2]; all dose groups, week 8 or week 24, mITT): no significant difference | CDR-S measure of working memory ([2]; week 24, with donepezil): not significantly modified | CDR-S other measures of attention/speed of response ([2]; week 24, with donepezil): not significantly modified | sleep quality assessed by wake after sleep onset (WASO) over placebo ([3]; 2 mg and 5 mg groups, from week 12): dose-dependent worsening of sleep quality
